In US20260042762A1 (Kymera Therapeutics, Inc., priority 2018, published 2026):
Where a name gives a salt, the structure may show the parent alone.

target: T1, MerTK (Homo sapiens, UniProt Q12866); assay: MerTk degradation in Jurkat cells (Western blot); assay type: cell-based; conditions: 0.001-1 μM, 4 hour-incubation at 37° C.
T1 construct: endogenous in cells; host or cells: Jurkat cells
T1 sequence (Q12866 21-999): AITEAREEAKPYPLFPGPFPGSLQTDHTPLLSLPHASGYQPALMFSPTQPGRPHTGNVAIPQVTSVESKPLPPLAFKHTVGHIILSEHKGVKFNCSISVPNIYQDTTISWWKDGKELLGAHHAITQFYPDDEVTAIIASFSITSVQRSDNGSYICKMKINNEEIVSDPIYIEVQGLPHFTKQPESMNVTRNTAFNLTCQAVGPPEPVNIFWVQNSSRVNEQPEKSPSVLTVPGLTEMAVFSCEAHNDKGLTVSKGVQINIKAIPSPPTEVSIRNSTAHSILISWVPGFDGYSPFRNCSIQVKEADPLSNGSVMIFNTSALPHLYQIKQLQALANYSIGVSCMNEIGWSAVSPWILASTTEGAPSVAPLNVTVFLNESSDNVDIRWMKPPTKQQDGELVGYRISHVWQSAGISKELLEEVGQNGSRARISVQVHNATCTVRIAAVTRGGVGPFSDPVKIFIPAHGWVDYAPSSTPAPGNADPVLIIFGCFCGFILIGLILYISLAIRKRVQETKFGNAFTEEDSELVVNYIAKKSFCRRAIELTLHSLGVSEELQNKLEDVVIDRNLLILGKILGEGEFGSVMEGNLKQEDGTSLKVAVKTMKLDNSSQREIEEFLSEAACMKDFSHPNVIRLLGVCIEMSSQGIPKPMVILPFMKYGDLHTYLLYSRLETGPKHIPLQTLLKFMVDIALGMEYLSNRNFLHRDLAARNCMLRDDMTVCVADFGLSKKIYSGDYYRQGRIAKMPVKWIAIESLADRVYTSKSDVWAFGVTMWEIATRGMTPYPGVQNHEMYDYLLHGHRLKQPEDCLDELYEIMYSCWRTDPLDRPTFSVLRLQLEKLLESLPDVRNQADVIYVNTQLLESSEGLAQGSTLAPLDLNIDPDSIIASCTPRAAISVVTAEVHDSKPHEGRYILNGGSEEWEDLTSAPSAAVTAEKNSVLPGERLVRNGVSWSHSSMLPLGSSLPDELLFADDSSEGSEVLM
Method in brief: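 Jurkat cells treated 4 h at 37 °C with compound at 0.001-1 μM final. RIPA lysates quantified by BCA, then MerTK probed by Western blot against actin loading control with IR-dye secondaries and Odyssey imaging.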

`Cn1c(=O)n(C2CCC(=O)NC2=O)c2ccc(CCCOCCN3CCCC(N4CCN(Cc5ccc(-c6cn([C@H]7CC[C@H](O)CC7)c7nc(NCCC(F)(F)F)ncc67)cc5)CC4)C3)cc21.O=CO` (stereo partly drawn) [I-95, 3-(3-methyl-2-oxo-5-[3-[2-(3-[4-[(4-[7-[trans-4-hydroxycyclohexyl]-2-[(3,3,3-trifluoropropyl)amino]-7H-pyrrolo[2,3-d]pyrimidin-5-yl]phenyl)methyl]piperazin-1-yl]piperidin-1-yl)ethoxy]propyl]-2,3-dihydro-1H-1,3-benzodiazol-1-y1)piperidine-2,6-dione; formic acid] was tested, and the “Jurkat Max % MerTK Degradation” value was “A (maximum MerTK degradation greater than 50%)”.

same assay, conditions: Jurkat, 4 h, 0.001-1 μM, 4 hour-incubation at 37° C., read-out: Jurkat Max % MerTK Degradation

Compared with `Cn1c(=O)n([C@H]2CCC(=O)NC2=O)c2ccc(CCCOCCCN3CCN(Cc4cn([C@H]5CC[C@H](O)CC5)c5nc(NCCC(F)(F)F)ncc45)CC3)cc21` [I-140, 3-[3-methyl-2-oxo-5-(3-[3-[4-([7-[trans-4-hydroxycyclohexy1]-2-[(3,3,3-trifluoropropyl)amino]pyrrolo[2,3-d]pyrimidin-5-yl]methyl)piperazin-1-yl]propoxy]propyl)-1,3-benzodiazol-1-yl]piperidine-2,6-dione; formic acid], `Cn1c(=O)n([C@H]2CCC(=O)NC2=O)c2ccc(CCCOCCOCCN3CCN(Cc4ccc(-c5cn([C@H]6CC[C@H](O)CC6)c6nc(NCCCF)ncc56)cc4)CC3)cc21` [I-88, 3-(5-[3-[2-(2-[4-[(4-[2-[(3-fluoropropyl)amino]-7-[trans-4-hydroxycyclohexyl]-7H-pyrrolo[2,3-d]pyrimidin-5yl]phenyl)methyl]piperazin-1-yl]ethoxy)ethoxy]propyl]-3-methyl-2-oxo-2,3-dihydro-1H-1,3-benzodiazol-1-yl)piperidine-2,6-dione; formic acid] is higher in Dmax: 20 to 50% for the first, greater than 50% for the second.

`C[C@H](Nc1ncc2c(-c3ccc(CN4CCN(CCCOCCCc5ccc6c(c5)n(C)c(=O)n6C5CCC(=O)NC5=O)CC4)cc3)cn([C@H]3CC[C@H](O)CC3)c2n1)C(F)F` (stereo partly shown) [I-216] and `CCCCNc1ncc2c(-c3ccc(CN4CCN(CCOCCOCCCc5ccc6c(c5)n(C)c(=O)n6[C@H]5CCC(=O)NC5=O)CC4)cc3)cn([C@H]3CC[C@H](O)CC3)c2n1` [I-42, 3-[5-[3-(2-[2-[4-([4-[2-(butylamino)-7-[trans-4-hydroxycyclohexyl]-7H-pyrrolo[2,3-d]pyrimidin-5-yl]phenyl]methyl)piperazin-1-yl]ethoxy]ethoxy)propyl]-3-methyl-2-oxo-2,3-dihydro-1H-1,3-benzodiazol-1-yl]piperidine-2,6-dione; formic acid] cannot be ordered by Dmax: greater than 50% for the first, greater than 50% for the second.

Compared with `CCC1CN(c2ccc(-c3ccnc(Nc4cc(OC)c(OC)c(OCCOCCOCCOCCOCCNc5cccc6c5C(=O)N(C5CCC(=O)NC5=O)C6=O)c4)n3)cn2)CCN1` (stereo not shown) [I-234], `CCCCNc1ncc2c(-c3ccc(CN4CCN(CCOCCOCCOCCOCCCc5ccc6c(c5)n(C)c(=O)n6[C@H]5CCC(=O)NC5=O)CC4)nn3)cn([C@H]3CC[C@H](O)CC3)c2n1` [I-76, 3-(5-[1-[4-([6-[2-(butylamino)-7-[trans-4-hydroxycyclohexyl]-7H-pyrrolo[2,3-d]pyrimidin-5-y1]pyridazin-3-y1]methyl)piperazin-1-y1]-3,6,9,12-tetraoxapentadecan-15-y1]-3-methyl-2-oxo-2,3-dihydro-1H-1,3-benzodiazol-1-y1)piperidine-2,6-dione; formic acid] is higher in Dmax: less than 20% for the first, greater than 50% for the second.

`Cn1c(=O)n([C@H]2CCC(=O)NC2=O)c2ccc(CCOC3CN(C4CCN(Cc5ccc(-c6cn([C@H]7CC[C@H](O)CC7)c7nc(NCCC(F)(F)F)ncc67)cc5)CC4)C3)cc21` [I-144, 3-(3-methyl-2-oxo-5-[2-[(1-[1-[(4-[7-[trans-4-hydroxycyclohexy1]-2-[(3,3,3-trifluoropropyl)amino]pyrrolo[2,3-d]pyrimidin-5-yl]phenyl)methyl]piperidin-4-yl]azetidin-3-yl)oxy]ethyl]-1,3-benzodiazol-1-yl)piperidine-2,6-dione; formic acid] and `Cn1c(=O)n([C@H]2CCC(=O)NC2=O)c2ccc(CCCN3CCC(C4CCN(Cc5ccc(-c6cn([C@H]7CC[C@H](O)CC7)c7nc(NCCC(F)(F)F)ncc67)cc5)CC4)CC3)cc21` [I-137, 3-[3-methyl-2-oxo-5-(3-[1-[(4-[7-[trans-4-hydroxycyclohexyl]-2-[(3,3,3-trifluoropropyl)amino]pyrrolo[2,3-d]pyrimidin-5-yl]phenyl)methyl]-[4,4-bipiperidin]-1-y1]propyl)-1,3-benzodiazol-1-yl]piperidine-2,6-dione] cannot be ordered by Dmax: greater than 50% for the first, greater than 50% for the second.

`Cn1c(=O)n([C@H]2CCC(=O)NC2=O)c2ccc(CCCOCCCOCCCNCc3ccc(-c4cn([C@H]5CC[C@H](O)CC5)c5nc(NCCC(F)(F)F)ncc45)cc3)cc21` [I-51, 3-(3-methyl-2-oxo-5-[3-[3-(3-[[(4-[7-[trans-4-hydroxycyclohexy1]-2-[(3,3,3-trifluoropropyl)amino]-7H-pyrrolo[2,3-d]pyrimidin-5-yl]phenyl)methyl]amino]propoxy)propoxy]propyl]-2,3-dihydro-1H-1,3-benzodiazol-1-y1)piperidine-2,6-dione hydrochloride] and `CCCCNc1ncc2c(-c3ccc(CNCCOCCOCCCc4ccc5c(c4)n(C)c(=O)n5[C@H]4CCC(=O)NC4=O)cc3)cn([C@H]3CC[C@H](O)CC3)c2n1` [I-45, 3-[5-[3-(2-[2-[([4-[2-(butylamino)-7-[trans-4-hydroxycyclohexy1]-7H-pyrrolo[2,3-d]pyrimidin-5-yl]phenyl]methyl)amino]ethoxy]ethoxy)propyl]-3-methyl-2-oxo-2,3-dihydro-1H-1,3-benzodiazol-1-y1]piperidine-2,6-dione; formic acid] cannot be ordered by Dmax: greater than 50% for the first, greater than 50% for the second.

First: Cc1ncsc1-c1ccc(CNC(=O)[C@@H]2C[C@@H](O)CN2C(=O)[C@@H](NC(=O)C2(F)CC2)C(C)(C)C)c(OCCCCN2CCN(Cc3ccc(-c4cn([C@H]5CC[C@H](O)CC5)c5nc(NCCC(F)(F)F)ncc45)cc3)CC2)c1 [I-179, (2S,4R)-1-[(2S)-2-[(1-fluorocyclopropyl)formamido]-3,3-dimethylbutanoyl]-4-hydroxy-N-[[4-(4-methyl-1,3-thiazol-5-yl)-2-(4-[4-[(4-[7-[trans-4-hydroxycyclohexyl]-2-[(3,3,3-trifluoropropyl)amino]pyrrolo[2,3-d]pyrimidin-5-yl]phenyl)methyl]piperazin-1-yl]butoxy)phenyl]methyl]pyrrolidine-2-carboxamide]
Second: CN(C)c1cccc2c(S(=O)(=O)Nc3cccc(-c4cnc(NCCOCCOCCOCCN5CCN(Cc6ccc(-c7cn([C@H]8CC[C@H](O)CC8)c8nc(NCCC(F)(F)F)ncc78)cc6)CC5)nc4N4CCC(c5ccccc5)C4C(=O)O)c3)cccc12 (stereo partly drawn) [I-169, 1-(5-[3-[5-(dimethylamino)naphthalene-1-sulfonamido]phenyl]-2-(12-[4-[(4-[7-[trans-4-hydroxycyclohexyl]-2-[(3,3,3-trifluoropropyl)amino]pyrrolo[2,3-d]pyrimidin-5-yl]phenyl)methyl]piperazin-1-yl]-4,7,10-trioxa-1-azadodecan-1-yl)pyrimidin-4-yl)-3-phenylpyrrolidine-2-carboxylic acid]
The Dmax of the first is higher: 20 to 50% for the first, less than 20% for the second.
